As a reminder, the IC50 is the concentration that inhibits the measured activity by half.

From BindingDB's records for patent US20240059675 (Boehringer Ingelheim International, 2024) come the findings set out here.

For experiment [1], the target named is Glutaminyl-peptide cyclotransferase-like protein (Homo sapiens, UniProt Q9NXS2). Kind of experiment: Biochemical QPCT and QPCTL Activity Assay.
Experiment [2] deals with Glutaminyl-peptide cyclotransferase (Homo sapiens, UniProt Q16769). Kind of experiment: Biochemical QPCT and QPCTL Activity Assay.
Glutaminyl-peptide cyclotransferase, sequence (Q16769 whole entry): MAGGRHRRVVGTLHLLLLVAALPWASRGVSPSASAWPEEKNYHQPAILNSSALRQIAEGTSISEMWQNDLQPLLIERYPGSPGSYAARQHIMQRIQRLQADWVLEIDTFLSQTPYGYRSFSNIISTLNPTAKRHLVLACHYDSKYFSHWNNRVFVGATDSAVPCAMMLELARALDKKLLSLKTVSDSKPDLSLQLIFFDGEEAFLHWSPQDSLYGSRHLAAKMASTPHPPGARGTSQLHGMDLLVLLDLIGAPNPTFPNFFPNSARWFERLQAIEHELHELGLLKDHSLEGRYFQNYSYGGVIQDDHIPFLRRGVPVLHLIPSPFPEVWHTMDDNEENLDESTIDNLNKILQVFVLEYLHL

Glutaminyl-peptide cyclotransferase-like protein, sequence (Q9NXS2 whole entry): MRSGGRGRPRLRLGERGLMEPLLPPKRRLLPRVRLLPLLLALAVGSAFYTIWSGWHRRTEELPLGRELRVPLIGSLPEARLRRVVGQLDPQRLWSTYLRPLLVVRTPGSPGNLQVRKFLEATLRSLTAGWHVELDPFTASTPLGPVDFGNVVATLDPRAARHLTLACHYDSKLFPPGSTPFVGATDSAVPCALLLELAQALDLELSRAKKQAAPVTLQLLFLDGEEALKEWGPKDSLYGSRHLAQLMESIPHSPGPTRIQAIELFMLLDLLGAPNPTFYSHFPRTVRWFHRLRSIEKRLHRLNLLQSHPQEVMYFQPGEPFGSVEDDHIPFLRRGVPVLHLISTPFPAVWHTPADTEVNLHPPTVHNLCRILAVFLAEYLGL

The molecule `Cn1cnnc1C1(F)CCN(c2c(C#N)ccnc2-c2cnc(F)c(OCC3CC3)c2)CC1` [US20240059675, Example 26] registered an IC50 in experiment [1] of 1 nM. That is a single-digit nanomolar value. In the case of `Cn1cnnc1C1(F)CCN(c2c(C#N)ccnc2-c2cnc3nn(C(C)(C)C(F)(F)F)cc3c2)CC1` [US20240059675, Example 29], the IC50 amounted to 3 nM in experiment [2] and 2 nM in experiment [1]. With `Cn1cnnc1C1(F)CCN(c2c(C#N)ccnc2-c2ccc(F)nc2)CC1` [US20240059675, Example 1], the IC50 in experiment [2] was 4 nM.
